Source: PMC5115179 (Pharmacology Research & Perspectives, 2016)

Key:
[1] = NCS‐382–diclofenac interaction study (inhibition of NCS‐382 glucuronidation); conditions: mouse; for AUC(0-t): both, in vivo, 25 mg/kg
[2] = Excretion of NCS‐382 in urine and feces (metabolic cages); type: in vivo; conditions: mouse, reanalyzed samples of study 1
Protocol: To ensure sufficient volumes of urine could be collected in each of the 2 h time intervals (baseline, 0–2, 2–4, 4–6, 6–8 h), three mice were dosed simultaneously and their urine and feces pooled for analysis. The total dose in μg administered to the three animals was therefore used to calculate the percent of the dose excreted in the urine pooled from all three mice. Animals were allowed ad libitum access to food and water of which the intake of each was monitored.
Samples (3 μL) were injected onto a Kinetex PFP (50 × 2.1 mm, 1.7 μm particle size) UPLC column and eluted with a binary gradient consisting of water with 0.1% formic acid (mobile phase A) and methanol with 0.1% formic acid (mobile phase B). […] Eluent was directed to waste for the initial 0.4 min then to an ABI Sciex 6500 Qtrap tandem mass spectrometer. […] Where necessary, samples were diluted in blank matrices for analysis.
Pharmacokinetic outcomes were obtained via standard noncompartmental methods using Kinetica (version 5.1, Thermo Fisher Scientific, Waltham, MA). The maximum concentration (C max) was obtained directly from the concentration–time profiles. Area under the concentration–time curve (AUC) from time zero to the last collected time point was determined using the trapezoidal method with linear up/log down interpolation.

[3] = test system: monocarboxylate transporter 1 (MCT1); set-up: method as in Tamai et al. 1999; Wang and Morris 2007; conditions: ref Tamai et al. 1999; Wang and Morris 2007; cited from earlier work
[4] = test system: UGT2B7; set-up: method as in Miners et al. 1997; Ammon et al. 2000; King et al. 2001; conditions: ref Miners et al. 1997; Ammon et al. 2000; King et al. 2001; cited from earlier work
[5] = test system: gamma‐butyrolactone‐treated mice; experiment: GBL‐mediated response protection by NCS‐382 in the absence and presence of diclofenac; type: in vivo; conditions: mouse; given alone i.p. (NCS‐382 300 mg/kg or diclofenac 25 mg/kg) 30 min before GBL 100 mg/kg i.p.
[6] = test system: GHB binding sites; set-up: method as in Wellendorph et al. 2009; conditions: ref Wellendorph et al. 2009; cited from earlier work
[7] = test system: UGT1A9; set-up: method as in Miners et al. 1997; Ammon et al. 2000; King et al. 2001; conditions: ref Miners et al. 1997; Ammon et al. 2000; King et al. 2001; cited from earlier work
[8] = treatment Diclofenac 25 mg/kg alone
[9] = treatment NCS‐382 300 mg/kg + Diclofenac 25 mg/kg
[10] = treatment NCS‐382 300 mg/kg alone

For O=C(O)Cc1ccccc1Nc1c(Cl)cc(O)cc1Cl [4‐OH‐Diclofenac, 4′‐hydroxydiclofenac], the “Sera AUC0–2 h [90% CI], relative quantification (peak area ratio)” value [1, 8] was 6.76 [5.18–8.33] PAR*h and the “Sera AUC0–2 h [90% CI], relative quantification (peak area ratio)” value [1, 9] was 8.28 [7.60–8.97] PAR*h.

For O=C(O)/C=C1\CCCc2ccccc2C1O[C@@H]1O[C@H](C(=O)O)[C@@H](O)[C@H](O)[C@H]1O (stereo partly shown) [NCS‐Glucuronide], the “Brain AUC0–2 h [90% CI], relative quantification (peak area ratio)” value [1, 9] was 4.58 [3.61–5.55] PAR*h, the “Sera AUC0–2 h [90% CI], relative quantification (peak area ratio)” value [1, 9] was 2.86 [2.55–3.18] PAR*h and the “Brain AUC0–2 h [90% CI], relative quantification (peak area ratio)” value [1, 10] was 3.28 [2.53–4.03] PAR*h. The “Sera AUC0–2 h [90% CI], relative quantification (peak area ratio)” value [1, 10] was 3.65 [2.65–4.65] PAR*h and the “detection of NCS‐382 metabolites in urine and feces” value [2] was “detectable in both the urine and feces”.

In the case of O=C(Cc1ccccc1Nc1c(Cl)cccc1Cl)O[C@@H]1O[C@H](C(=O)O)[C@@H](O)[C@H](O)[C@H]1O [Diclofenac glucuronide], the “Brain AUC0–2 h [90% CI], relative quantification (peak area ratio)” value [1, 8] is reported as 5.87 [4.46–7.28] PAR*h, the “Sera AUC0–2 h [90% CI], relative quantification (peak area ratio)” value [1, 8] is reported as 8.57 [6.09–11.04] PAR*h and the “Brain AUC0–2 h [90% CI], relative quantification (peak area ratio)” value [1, 9] is reported as 3.96 [3.25–4.67] PAR*h. For the same molecule, the “Sera AUC0–2 h [90% CI], relative quantification (peak area ratio)” value [1, 9] was 4.67 [4.21–5.13] ^a PAR*h.

For O=C(O)CCCO [GHB, gamma‐hydroxybutyric acid], the Km [3] is given as 4.6 to 7.7 mM.

With O=C(O)/C=C1\CCCc2ccccc2C1=O [NCS dehydrogenation] the “Sera AUC0–2 h [90% CI], relative quantification (peak area ratio)” value [1, 9] was 2.72 [2.26–3.18] ^a PAR*h, the “Sera AUC0–2 h [90% CI], relative quantification (peak area ratio)” value [1, 10] was 1.99 [1.82–2.16] PAR*h and the “detection of NCS‐382 metabolites in urine and feces” value [2] was “found in neither”.

In the case of O=C(O)Cc1cc(O)ccc1Nc1c(Cl)cccc1Cl [5‐OH‐Diclofenac, 5‐hydroxydiclofenac], the AUC(0-t) [1] is reported as 61.3 µM·h, the “Brain AUC0–2 h [90% CI]” value [1, 8] is reported as 4.60 [4.55–4.65] nmol g/tissue*h and the “Brain AUC0–2 h [90% CI]” value [1, 9] is reported as 5.20 [4.77–5.62] ^a nmol g/tissue*h.

For O=C(O)Cc1ccccc1Nc1c(Cl)cccc1Cl [Diclofenac], the AUC(0-t) [1] was 232 µM·h, the “Brain AUC0–2 h [90% CI]” value [1, 8] was 33.8 [28.2–39.4] nmol/g/tissue*h and the “Brain AUC0–2 h [90% CI]” value [1, 9] was 44.9 [39.5–50.3] ^a nmol/g/tissue*h. The Ki [4] was […], the “time to loss of motor function compared to vehicle control” value [5] was “did not have a measureable effect” and the “binding to GHB binding sites in rat brain” value [6] was “ligand for the GHB binding sites in rat brain”. The Ki [7] was 11 µM.
